Entries after “also recorded” stand apart in the source; their conditions may differ.
Experiments:
[1] = system: eIF2-GTP-Met-tRNAi ternary complex; experiment: Ternary complex / ATF-4 dual luciferase assay in human cancer cell lines co-transfected with tTA and pBISA-DL(ATF-4) (CRL-2351, PC-3, CRL-2813); format: cell-based; conditions: CRL-2351 cell line
Description: FIGS. 8A-8D depict that N,N′-diarylureas reduce the availability of the eIF2-GTP-Met-tRNAi ternary complex in human cancer cells. A-C) PC-3, CR-L2351, and CRL-2813 human cancer cell lines were co-transfected with pBISA-DL^(ATF-4) and ptTA plasmids. One day post-transfection, the cells were treated with the indicated concentrations of N,N′-diarylureas. Firefly/renilla ratio was determined by DLR assay 8 hours after treatment. D) PC-3, CR-L2351, and CRL-2813 human cancer cell lines were treated with the indicated concentrations of N,N′-diarylureas four 8 hours, and expression of endogenous CHOP mRNA was determined by real-time PCR.
(§1) For example, reducing amount of the ternary complex increases translation of ATF-4, which results in elevated expression of CHOP mRNA and protein. Therefore, expression of endogenous CHOP mRNA and CHOP protein in KLN-tTA/pBISA-DL^(ATF-4) cells were utilized as secondary assays to validate N,N′-diarylurea compounds as modifiers of the eIF2⋅GTP⋅Met-tRNAi ternary complex. […] To rule out the possibility that the activity of N,N′-diarylurea compounds was confined to a single cell type, the effects of these compounds on the ternary complex assay and the expression of CHOP mRNA was assayed in CRL-2351, PC-3, CRL-2813 human breast, prostate, and melanoma cancer cell lines respectively. For the reporter gene assay, the three human cell lines were co-transfected with tTA expression vector and the pBISA-DL^(ATF-4) dual luciferase expression vector shown in FIG. 6. […] The expression of CHOP mRNA was assayed by real time PCR in the same cell lines treated with 5 or 20 μM of each compound. […]
Stable and transient transfection: Cells were seeded at the density of 10^5 in 60-mm (stable transfection) or 10^4 cells per well of 96-well plate (transient transfection) plates and transfected one day later using the Qiagen Transfectamine transfection kit. For selection of stable cell lines, transfected cells were transferred to 100-mm plates and selected with appropriate antibiotics.
Dual luciferase assay: Cells or minced tumors expressing firefly and renilla luciferases were lysed and the extracts assayed with a glow type dual luciferase assay kit, per manufacturer's instruction (Promega Inc., Madison, Wis.).

[2] = Solubility in solvents during purification; format: physicochemical; conditions: crude product
Description: Because it could not be purified, this compound was removed from the structure-activity relationship (SAR) study.
As another non-limiting example, 3,4-dichlorophenylisocyanate (250 mg, 1.330 mmol) and 2-amino-4-hydroxy-6-methylpyrimidine (166 mg, 1.330 mmol) were used following the general procedure E to synthesize 28.

[3] = system: eIF2-GTP-Met-tRNAi ternary complex; experiment: Ternary complex assay (dual luciferase, firefly/renilla ratio) in stable KLN-tTA/pBISA-DL(ATF-4) cells; HTS and hit confirmation; format: cell-based, mouse; conditions: designation in figure legend
[4] = system: PC-3 human prostate cancer cells; experiment: Cell proliferation, SRB assay, PC-3; format: cell-based; conditions: read-out: IC50 (concentration that inhibits cell proliferation by 50%)
Description: Reduced availability of the ternary complex causes inhibition of translation initiation and thereby of cell proliferation. […] The effects of N,N′-diarlyureas on the proliferation KLN mouse squamous cell carcinoma, CRL-2351 human breast, CRL-2813 human melanoma, A549 human lung and PC-3 human prostate cancer cell lines were tested.
To determine if N,N′-diarylureas inhibit cell proliferation by reducing the availability of the ternary complex, the effect of N,N′-diarylureas on proliferation of previously described transgenic PC-3 human prostate cancer cell lines expressing either the non-phosphorylatable eIF2α-S51A mutant or the eIF2α-WT was studied. […] Reducing the expression of HRI, the eIF2α kinase that mediates N,N′-diarlyurea induced phosphorylation of eIF2α similarly abrogates the effect of these agents on cell proliferation (FIGS. 15C and 15D).
Cell Growth Assay: Cell growth was measured by the SRB assay.

[5] = system: eIF2-GTP-Met-tRNAi ternary complex; experiment: Ternary complex assay (dual luciferase, firefly/renilla ratio) in stable KLN-tTA/pBISA-DL(ATF-4) cells; HTS and hit confirmation; format: cell-based, mouse; conditions: for Induction of F-luc/R-luc ratio after knockdown of HRI: siRNA against HRI
[6] = In vivo toxicity in female nude mice (body weight, food consumption, necropsy)
Description: Five female nude mice each were treated with 200 mg/kg, 100 mg/kg #1781 in 15 μl DMSO or 15 μl DMSO daily for seven days. Mice were observed daily for signs of toxicity and weighed every other day for total of 15 days and then necropsy was performed. The average body of each group is plotted against the time.
To study toxicity effects, mice were treated with various doses of compound #1781 or vehicle.

CHOP = experiment: Expression of endogenous CHOP mRNA (real time PCR) and CHOP protein (Western blot); format: cell-based, mouse and human; conditions: siRNA against HRI
From the text: as §1
Real time PCR: For real time PCR, total RNA was extracted with TaqMan Gene Expression Cells-to-Ct™ Kit (Applied Biosystems, Branchburg, N.J.) according to manufacturer's protocol. […] To calibrate the results, all the transcripts quantities were normalized to 18S rRNA (was 18S ribosomal RNA-like mRNA in mouse). […]

HRI = experiment: Activation of HRI in cell-free lysates (phosphorylation of eIF2α, Western blot); format: biochemical, rabbit and human; conditions: lysates of CRL-2813 cells or heme-supplemented rabbit reticulocytes, 30 minutes at 37° C.
Description: FIGS. 14A and 14B depict that N,N′-diarylurea compounds activate HRI in cell free lysates. A and B) Heme supplemented rabbit reticulocyte (a) or in-house prepared human melanoma cancer cell lysates (b) were incubated with the indicated concentration of compound 1781 for 30 minutes at 37° C. and phosphorylation of eIF2α was determined by Western blot analysis.
Compound #1781 was added to lysates of CRL-2813 cells or heme-supplemented rabbit reticulocytes and phosphorylation of eIF2α by Western blot was determined.

Compound: O=C(Nc1cc(C(F)(F)F)cc(C(F)(F)F)c1)Nc1ncccc1O [Compound 28]
- ATF-4 Cmax (concentration corresponding to the maximal activity) [1]: 40 µM
- Solubility in solvents [2]: not soluble in any solvent; also recorded: wasn't soluble in any solvent tested

Compound: O=C(Nc1ccc(Cl)c(Cl)c1)Nc1cc([N+](=O)[O-])ccc1Cl [Compound 1527]
- Active or inactive N,N′-diarylurea (ternary complex assay) [3]: inactive
- IC50 [4]: 8.3 µM

Compound: O=C(Nc1ccc(Cl)c(Cl)c1)Nc1ccc2nnsc2c1 [Compound 1781]
- Induction of F-luc/R-luc ratio after knockdown of HRI [5]: significantly abrogated
- Induction of F-luc/R-luc ratio after knockdown of HRI ([5]; listed as 1181): almost completely abrogated
- Induction of F-luc/R-luc ratio after knockdown of PKR, PERK or GCN2 ([5]; siRNA against PKR, PERK, GCN2, individually or combined): no effect
- Apparent in vivo toxicity ([6]; 200 mg/kg or 100 mg/kg daily for seven days, female nude mice, observed 15 days): no apparent in vivo toxicity
- Effect on weight gain or food consumption ([6]; seven consecutive day administration, up to 200 mg/kg, mice): no adverse effect on weight gain or food consumption
- Induction of CHOP mRNA after knockdown of HRI (CHOP): abrogated induction of CHOP mRNA
- Phosphorylation of eIF2α in cell lysates (HRI): caused phosphorylation of eIF2α in cell lysates in a dose dependent manner
